# Results as given in PubChem BioAssay AID256 (DTP/NCI, 2004).
# Toxic doses and inconclusive results are not listed.
# System: CD2F1 mice, L1210 leukemia ip, survival T/C
# Test: NCI In Vivo Anticancer Drug Screen. Data for tumor model L1210 Leukemia (intraperitoneal) in CD2F1 (CDF1) mice
# Conditions: higher = longer survival
# Summary of the method: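 Each value reflects a quotient of treated over vehicle control outcomes in mice with a transplanted tumor.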
# [1] = endpoint: mean survival time, dose: 100.0 mg/kg/injection, schedule: Q04DX003 (ip), vehicle: saline with Tween-80
# [2] = endpoint: mean survival time, dose: 200.0 mg/kg/injection, schedule: Q04DX003 (ip), vehicle: saline with Tween-80
# [3] = endpoint: mean survival time, dose: 400.0 mg/kg/injection, schedule: Q04DX003 (ip), vehicle: saline with Tween-80
# [4] = endpoint: mean survival time, dose: 12.5 mg/kg/injection, schedule: Q04DX003 (ip), vehicle: saline with Tween-80
# [5] = endpoint: mean survival time, dose: 25.0 mg/kg/injection, schedule: Q04DX003 (ip), vehicle: saline with Tween-80
# [6] = endpoint: mean survival time, dose: 50.0 mg/kg/injection, schedule: Q04DX003 (ip), vehicle: saline with Tween-80
# [7] = endpoint: mean survival time, dose: 100.0 mg/kg/injection, schedule: Q01DX001 (ip), vehicle: saline with Tween-80
# [8] = endpoint: mean survival time, dose: 100.0 mg/kg/injection, schedule: Q01DX009 (ip), vehicle: saline with Tween-80
# [9] = endpoint: mean survival time, dose: 200.0 mg/kg/injection, schedule: Q01DX009 (ip), vehicle: saline with Tween-80
# [10] = endpoint: mean survival time, dose: 400.0 mg/kg/injection, schedule: Q01DX009 (ip), vehicle: saline with Tween-80
# [11] = endpoint: mean survival time, dose: 25.0 mg/kg/injection, schedule: Q01DX009 (ip), vehicle: saline
# [12] = endpoint: mean survival time, dose: 50.0 mg/kg/injection, schedule: Q01DX009 (ip), vehicle: saline
smiles,measurement,setting,value
O=C(C1CC1c1ccccc1)N1CCC(Nc2ccccc2)CC1 (stereo unspecified),T/C,"endpoint: mean survival time, dose: 100.0 mg/kg/injection, schedule: Q04DX002 (ip), vehicle: other",102 % of control
same,T/C,"endpoint: mean survival time, dose: 200.0 mg/kg/injection, schedule: Q04DX002 (ip), vehicle: other",94 % of control
same,T/C,"endpoint: mean survival time, dose: 400.0 mg/kg/injection, schedule: Q04DX002 (ip), vehicle: other",90 % of control
O=C1c2ccccc2C(=O)N1c1ccccc1-c1ccccc1,T/C,[1],100 % of control
same,T/C,[2],92 % of control
same,T/C,[3],100 % of control
CC([NH-])CC[NH-].O=C(O)C(=O)O.[Pt+2] (stereo unspecified),T/C,"endpoint: mean survival time, dose: 3.12 mg/kg/injection, schedule: Q04DX003 (ip), vehicle: saline with Tween-80",152 % of control
same,T/C,"endpoint: mean survival time, dose: 6.25 mg/kg/injection, schedule: Q04DX003 (ip), vehicle: saline with Tween-80",235 % of control
same,T/C,[4],265 % of control
CC(=O)NCC(C)OC(C)=O (stereo unspecified),T/C,"endpoint: mean survival time, dose: 100.0 mg/kg/injection, schedule: Q04DX003 (ip), vehicle: saline",101 % of control
same,T/C,"endpoint: mean survival time, dose: 200.0 mg/kg/injection, schedule: Q04DX003 (ip), vehicle: saline",97 % of control
same,T/C,"endpoint: mean survival time, dose: 400.0 mg/kg/injection, schedule: Q04DX003 (ip), vehicle: saline",98 % of control
CCCC(NC(=O)C(C)Br)C(=O)O (stereo unspecified),T/C,[1],95 % of control
same,T/C,[2],96 % of control
same,T/C,[3],100 % of control
CSC(=S)N/N=C(\C)c1ccccn1,T/C,[5],98 % of control
same,T/C,[6],107 % of control
same,T/C,[1],110 % of control
C=C1C=CC1=O,T/C,"endpoint: mean survival time, dose: 1.0 micrograms/kg/injection, schedule: Q01DX009 (ip), vehicle: olive oil, sesame oil, peanut oil",97 % of control
same,T/C,"endpoint: mean survival time, dose: 1.0 micrograms/kg/injection, schedule: Q01DX009 (ip), vehicle: other",102 % of control
same,T/C,"endpoint: mean survival time, dose: 6.0 micrograms/kg/injection, schedule: Q01DX009 (ip), vehicle: olive oil, sesame oil, peanut oil",97 % of control
same,T/C,"endpoint: mean survival time, dose: 6.0 micrograms/kg/injection, schedule: Q01DX009 (ip), vehicle: other",103 % of control
same,T/C,"endpoint: mean survival time, dose: 10.0 micrograms/kg/injection, schedule: Q01DX009 (ip), vehicle: olive oil, sesame oil, peanut oil",94 % of control
same,T/C,"endpoint: mean survival time, dose: 10.0 micrograms/kg/injection, schedule: Q01DX009 (ip), vehicle: other",101 % of control
same,T/C,"endpoint: mean survival time, dose: 60.0 micrograms/kg/injection, schedule: Q01DX009 (ip), vehicle: olive oil, sesame oil, peanut oil",96 % of control
same,T/C,"endpoint: mean survival time, dose: 60.0 micrograms/kg/injection, schedule: Q01DX009 (ip), vehicle: other",104 % of control
same,T/C,"endpoint: mean survival time, dose: 100.0 micrograms/kg/injection, schedule: Q01DX006 (ip), vehicle: other",101 % of control
same,T/C,"endpoint: mean survival time, dose: 100.0 micrograms/kg/injection, schedule: Q01DX009 (ip), vehicle: olive oil, sesame oil, peanut oil",97 % of control
same,T/C,"endpoint: mean survival time, dose: 100.0 micrograms/kg/injection, schedule: Q01DX009 (ip), vehicle: other",100 % of control
same,T/C,"endpoint: mean survival time, dose: 600.0 micrograms/kg/injection, schedule: Q01DX009 (ip), vehicle: olive oil, sesame oil, peanut oil",91 % of control
same,T/C,"endpoint: mean survival time, dose: 1000.0 micrograms/kg/injection, schedule: Q01DX009 (ip), vehicle: olive oil, sesame oil, peanut oil",96 % of control
NNc1c(F)ccc(F)c1F,T/C,"endpoint: mean survival time, dose: 25.0 mg/kg/injection, schedule: Q01DX001 (ip), vehicle: saline with Tween-80",100 % of control
same,T/C,"endpoint: mean survival time, dose: 50.0 mg/kg/injection, schedule: Q01DX001 (ip), vehicle: saline with Tween-80",100 % of control
same,T/C,[7],94 % of control
CC(=O)NC1C(OC(C)=O)C(OC(C)=O)C(OC(C)=O)C(OC(C)=O)C1OC(C)=O (stereo unspecified),T/C,[7],97 % of control
same,T/C,"endpoint: mean survival time, dose: 200.0 mg/kg/injection, schedule: Q01DX001 (ip), vehicle: saline with Tween-80",93 % of control
same,T/C,"endpoint: mean survival time, dose: 400.0 mg/kg/injection, schedule: Q01DX001 (ip), vehicle: saline with Tween-80",93 % of control
COc1cc(Cl)ccc1NC(=O)Oc1ccc(Cl)cc1Br,T/C,"endpoint: mean survival time, dose: 50.0 mg/kg/injection, schedule: Q01DX009 (ip), vehicle: saline with Tween-80",96 % of control
same,T/C,[8],96 % of control
same,T/C,[9],96 % of control
O=C1c2ccccc2C(=O)N1CNc1cccc(NCN2C(=O)c3ccccc3C2=O)n1,T/C,[1],104 % of control
same,T/C,[2],106 % of control
same,T/C,[3],90 % of control
COc1cc2ccc(CCN)cc2cc1OC,T/C,[4],102 % of control
same,T/C,[5],102 % of control
same,T/C,[6],96 % of control
NS(=O)(=O)c1cc(Cl)cc(Cl)c1O,T/C,[2],91 % of control
same,T/C,[3],93 % of control
CCCc1ccc(NS(=O)(=O)c2ccc(C)cc2)cc1,T/C,"endpoint: mean survival time, dose: 100.0 mg/kg/injection, schedule: Q04DX002 (ip), vehicle: Klucel (hydroxypropylcellulose) (HPC)",98 % of control
same,T/C,"endpoint: mean survival time, dose: 200.0 mg/kg/injection, schedule: Q04DX002 (ip), vehicle: Klucel (hydroxypropylcellulose) (HPC)",103 % of control
same,T/C,"endpoint: mean survival time, dose: 400.0 mg/kg/injection, schedule: Q04DX002 (ip), vehicle: Klucel (hydroxypropylcellulose) (HPC)",92 % of control
Cc1ccc(C#CC(C)(C)O)cn1,T/C,[8],94 % of control
same,T/C,[9],102 % of control
same,T/C,[10],122 % of control
S=c1nccc[nH]1.[Pt],T/C,"endpoint: mean survival time, dose: 3.13 mg/kg/injection, schedule: Q04DX003 (ip), vehicle: distilled water + Tween-80",98 % of control
same,T/C,"endpoint: mean survival time, dose: 6.25 mg/kg/injection, schedule: Q04DX003 (ip), vehicle: distilled water + Tween-80",103 % of control
same,T/C,"endpoint: mean survival time, dose: 12.5 mg/kg/injection, schedule: Q04DX003 (ip), vehicle: distilled water + Tween-80",98 % of control
same,T/C,"endpoint: mean survival time, dose: 25.0 mg/kg/injection, schedule: Q04DX003 (ip), vehicle: distilled water + Tween-80",97 % of control
same,T/C,"endpoint: mean survival time, dose: 50.0 mg/kg/injection, schedule: Q04DX003 (ip), vehicle: distilled water + Tween-80",90 % of control
same,T/C,"endpoint: mean survival time, dose: 100.0 mg/kg/injection, schedule: Q04DX003 (ip), vehicle: distilled water + Tween-80",98 % of control
same,T/C,"endpoint: mean survival time, dose: 200.0 mg/kg/injection, schedule: Q04DX003 (ip), vehicle: distilled water + Tween-80",98 % of control
COC(=O)c1ccc(N=NN(C)COC(C)=O)cc1,T/C,"endpoint: median survival time, dose: 15.0 mg/kg/injection, schedule: Q01DX005 (ip), vehicle: Klucel (hydroxypropylcellulose) (HPC)",109 % of control
same,T/C,"endpoint: median survival time, dose: 30.0 mg/kg/injection, schedule: Q01DX005 (ip), vehicle: Klucel (hydroxypropylcellulose) (HPC)",113 % of control
same,T/C,"endpoint: median survival time, dose: 60.0 mg/kg/injection, schedule: Q01DX005 (ip), vehicle: Klucel (hydroxypropylcellulose) (HPC)",114 % of control
same,T/C,"endpoint: median survival time, dose: 240.0 mg/kg/injection, schedule: Q01DX005 (ip), vehicle: Klucel (hydroxypropylcellulose) (HPC)",182 % of control
O=C1C=C(Nc2ccccc2)CCC1,T/C,[8],94 % of control
same,T/C,[9],100 % of control
same,T/C,[10],97 % of control
CCC1(O)CC2CN(CCc3c([nH]c4ccccc34)C(C(=O)OC)(c3cc4c(cc3OC)N(C)C3C(O)(C(=O)NCCSSCCNC(=O)C5(O)C(O)C6(CC)C=CCN7CCC8(c9cc(C%10(C(=O)OC)CC%11CN(CCc%12c%10[nH]c%10ccccc%12%10)CC(O)(CC)C%11)c(OC)cc9N(C)C58)C76)C(O)C5(CC)C=CCN6CCC43C65)C2)C1 (stereo unspecified),T/C,"endpoint: median survival time, dose: 1.08 mg/kg/injection, schedule: Q01DX009 (ip), vehicle: suspension in saline",111 % of control
O=S(=O)(O)SCCN1CCCC1,T/C,"endpoint: mean survival time, dose: 12.5 mg/kg/injection, schedule: Q01DX009 (ip), vehicle: saline",107 % of control
same,T/C,"endpoint: mean survival time, dose: 12.5 mg/kg/injection, schedule: Q04DX003 (ip), vehicle: saline sonified",101 % of control
same,T/C,[11],104 % of control
same,T/C,"endpoint: mean survival time, dose: 25.0 mg/kg/injection, schedule: Q04DX003 (ip), vehicle: saline sonified",98 % of control
same,T/C,[12],102 % of control
same,T/C,"endpoint: mean survival time, dose: 50.0 mg/kg/injection, schedule: Q04DX003 (ip), vehicle: saline sonified",96 % of control
c1ccc(P(c2cccc3ccccc23)c2cccc3ccccc23)cc1,T/C,"endpoint: mean survival time, dose: 100.0 mg/kg/injection, schedule: Q01DX001 (ip), vehicle: saline",93 % of control
same,T/C,"endpoint: mean survival time, dose: 200.0 mg/kg/injection, schedule: Q01DX001 (ip), vehicle: saline",93 % of control
same,T/C,"endpoint: mean survival time, dose: 400.0 mg/kg/injection, schedule: Q01DX001 (ip), vehicle: saline",91 % of control
NC(CSC1c2ccccc2-c2ccccc21)C(=O)O (stereo unspecified),T/C,[11],102 % of control
same,T/C,[12],103 % of control
same,T/C,"endpoint: mean survival time, dose: 100.0 mg/kg/injection, schedule: Q01DX009 (ip), vehicle: saline",102 % of control
same,T/C,"endpoint: mean survival time, dose: 200.0 mg/kg/injection, schedule: Q01DX009 (ip), vehicle: saline",96 % of control
same,T/C,"endpoint: mean survival time, dose: 400.0 mg/kg/injection, schedule: Q01DX009 (ip), vehicle: saline",103 % of control
C1CCC2C3CCC(O3)C2C1 (stereo unspecified),T/C,"endpoint: mean survival time, dose: 100.0 mg/kg/injection, schedule: Q04DX003 (ip), vehicle: saline sonified",96 % of control
same,T/C,"endpoint: mean survival time, dose: 200.0 mg/kg/injection, schedule: Q04DX003 (ip), vehicle: saline sonified",96 % of control
same,T/C,"endpoint: mean survival time, dose: 400.0 mg/kg/injection, schedule: Q04DX003 (ip), vehicle: saline sonified",92 % of control
